# According to US20170334865A1, “DDR2 INHIBITORS AND METHODS OF USING” (WASHINGTON UNIVERSITY, priority 2014, published 2017):
# Molecular target: T1, DDR2 extracellular domain (ECD) (Homo sapiens, UniProt Q16832)
# T1 sequence (Q16832 22-399 limits assumed): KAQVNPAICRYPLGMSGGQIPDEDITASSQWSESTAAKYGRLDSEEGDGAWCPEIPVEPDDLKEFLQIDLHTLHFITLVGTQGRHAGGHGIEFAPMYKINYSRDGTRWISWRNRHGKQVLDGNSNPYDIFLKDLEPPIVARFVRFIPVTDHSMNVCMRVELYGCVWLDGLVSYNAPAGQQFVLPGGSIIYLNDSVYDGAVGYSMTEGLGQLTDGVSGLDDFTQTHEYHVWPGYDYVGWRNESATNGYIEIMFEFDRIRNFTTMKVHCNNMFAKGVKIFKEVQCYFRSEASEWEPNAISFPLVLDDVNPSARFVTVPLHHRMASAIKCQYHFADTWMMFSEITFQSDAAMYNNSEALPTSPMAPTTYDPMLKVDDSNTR
# Test: in vitro ELISA-type assay, binding of soluble DDR2 ECD to immobilized collagen triple helical peptide
# Settings: values given in μM; read-out: IC50, Inhibition of DDR2-collagen binding activity
# Experimental: The activity of the synthesized compounds was assayed using an in vitro ELISA-type assay to measure the binding of purified, soluble DDR2 extracellular domain (ECD) to an immobilized substrate. The substrate used was a high affinity, specific, triple helical peptide (see Xu et al., PLoS One. 2012; 7(12): e52209), which represents the minimal DDR2 specific binding domain within collagens I-III.
# DDR2-collagen binding activity was measured in the presence of 250 nM, 500 nM, or 2 μM of test compound or DMSO control.
row,SMILES,IC50
1,"CCOc1ccc2nc3ccc(=O)cc-3oc2c1 [7-ethyloxy-phenoxazin-3-one, reference compound]",4 µM
2,"CCCCCOc1ccc2nc3ccc(=O)cc-3oc2c1 [WRG-1, 7-pentyloxy-phenoxazin-3-one]",3.5 µM
3,COCCOc1ccc2nc3ccc(=O)cc-3oc2c1 [WRG-R-4],14 µM
4,O=C(Oc1ccc2nc3ccc(=O)cc-3oc2c1)c1ccccc1 [WRG-R-6],1.41 µM
5,O=c1ccc2nc3ccc(OCc4cccnc4)cc3oc-2c1 [WRG-R-9],1.2 µM
6,O=C(Nc1ccccc1)Oc1ccc2nc3ccc(=O)cc-3oc2c1 [WRG-R-12],> 100 µM
7,O=c1ccc2nc3ccc(NS(=O)(=O)c4ccccc4)cc3oc-2c1 [WRG-R-20],> 100 µM

# Same assay, conditions: values in nM; read-out: IC50, Inhibition of DDR2-collagen binding activity
row,SMILES,IC50
1,"O=c1ccc2nc3ccc(OCc4ccccc4)cc3oc-2c1 [WRG-2, 7-benzyloxy-phenoxazin-3-one]",0.461 µM
2,COc1cccc(COc2ccc3nc4ccc(=O)cc-4oc3c2)c1 [WRG-R-5],0.393 µM
3,O=c1ccc2nc3ccc(OS(=O)(=O)c4ccccc4)cc3oc-2c1 [WRG-R-7],0.558 µM
4,O=c1ccc2nc3ccc(OCc4ccncc4)cc3oc-2c1 [WRG-R-10],0.311 µM
5,O=c1ccc2nc3ccc(OCc4ccc(OC(F)F)cc4)cc3oc-2c1 [WRG-R-27],0.11 µM
